The source of these data is the NIST ThermoML archive (doi:10.1021/acs.jced.6b00280).

A short description of data set [1]: refractive index (Na D-line) (dimensionless). To be noted: 298.15 K; 101.33 kPa; Liquid; Standard Abbe refractometry.
For data set [2] the following is noted: for mass density: 298.15 K, 101.33 kPa, Pycnometric method.

Numbers after ± are expanded uncertainties.

In the case of `CO` [methanol], in data set [1], the refractive index (commonly the speed of light in vacuum divided by its phase velocity in the sample) is 1.3264 ± 0.0004. Besides, in data set [2] (Liquid), the mass density (in general, mass per unit of volume) stood at 786.1 ± 2 kg/m3.
As to `Oc1ccccc1O` [1,2-benzenediol], in data set [2] (Crystal), the mass density was 1346 ± 2 kg/m3. Further, the Normal melting temperature in data set [2] (Crystal, visual observation) is 106.10 ± 1.6 °C.
Consider `CCCCOC(C)=O` [butyl ethanoate], for which, in data set [1], the refractive index was found to be 1.393 ± 0.0004. Besides, the mass density in data set [2] (Liquid) is recorded as 873.1 ± 2 kg/m3.
